Among the data in US20240246954A1, “COMPOSITIONS AND METHODS FOR INHIBITING KRAS” (TheRas, Inc., priority 2021, published 2024) are IC50 values, retold here.

For test [1], the system named is pERK in GP2d cells (KRAS G12D). Put plainly: Cell-based pERK HTRF assay. The conditions noted are these: GP2d, 1 h, 60 min incubation. The method, boiled down:
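GP2d cells (DMEM, 10% FBS) treated 60 min with compounds in a 9-point half-log series from 1 μM top concentration, 0.25% DMSO. Lysates read for pERK by HTRF (d2/Eu cryptate antibodies) after 4–24 h at room temperature; emission at 615 nm.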

The target in test [2] is T1, Avi-KRAS G12D (1-169) GppNHp/RAF1 RBD-3×FLAG (52-151) (Homo sapiens, UniProt P01116, G12D).
T1 construct: Avi-KRAS G12D (1-169) GppNHp
Put plainly: HTRF Raf1-KRAS G12D-GppNHp disruption assay. It is filed as biochemical. The settings on record: 1 h incubation. An outline of the steps: (§1)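 HTRF read-out (320 nm excitation, 615 nm emission) after two 1 h room-temperature incubations, first with protein mix, then detection reagents. Ten-point dilution series starting at 100 μM; results given as % activity relative to DMSO at 100%.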
(In TR-FRET formats the signal depends on donor and acceptor labels being close together.)

Test [3] has as its target T2, Avi-KRAS G12D/Q25A (1-169) GppNHp/3×FLAG-PI3KCA (157-299) (Homo sapiens, UniProt P01116, G12D/Q25A).
T2 construct: Avi-KRAS G12D/Q25A (1-169) GppNHp
As to the kind of experiment: HTRF PI3KCA-KRAS G12D/Q25A-GppNHp disruption assay. It is filed as biochemical. The conditions noted are these: 1 h incubation. An outline of the steps: as §1

Some results are limits rather than exact numbers.

T2 sequence (P01116 1-169 isoform P01116-2 G12D/Q25A limits assumed): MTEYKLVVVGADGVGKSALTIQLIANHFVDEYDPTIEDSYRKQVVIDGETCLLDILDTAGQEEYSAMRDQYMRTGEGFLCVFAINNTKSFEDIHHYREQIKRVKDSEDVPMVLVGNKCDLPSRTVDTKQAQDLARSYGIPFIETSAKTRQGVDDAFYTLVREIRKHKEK
T1 sequence (P01116 1-169 isoform P01116-2 G12D limits assumed): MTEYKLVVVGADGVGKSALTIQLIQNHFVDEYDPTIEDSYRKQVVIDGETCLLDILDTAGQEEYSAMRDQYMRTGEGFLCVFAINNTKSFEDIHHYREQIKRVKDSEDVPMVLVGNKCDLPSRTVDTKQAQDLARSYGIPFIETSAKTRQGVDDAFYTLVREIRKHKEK

In general, IC50 refers to the concentration needed to halve the response being measured. The low end stands for inhibition by little substance, the high end for a need for much substance. Regarding `Nc1nc2c(-c3c(C(F)(F)F)cc4c(N5C[C@H]6CC[C@@H](C5)N6)nc(OC[C@@]56CCCN5C[C@H](F)C6)nc4c3Cl)ccc(F)c2s1` [Compound 256, 4-(4-((1R,5S)-3,8-diazabicyclo[3.2.1]octan-3-yl)-8-chloro-2-(((2R,7aS)-2-fluorotetrahydro-1H-pyrrolizin-7a(5H)-yl)methoxy)-6-(trifluoromethyl)quinazolin-7-yl)-7-fluorobenzo[d]thiazol-2-amine], the IC50 was ≤ 100 nM in test [1], 100 to 1000 nM in test [2] and 100 to 1000 nM in test [3].

Turning to `Fc1c(-c2ccc(F)c3sc(C(F)F)nc23)c(C(F)(F)F)cc2c(N3CC4CCC(C3)N4)nc(OC[C@@]34CCCN3C[C@H](F)C4)nc12` [Compound 339], the IC50 in test [1] was > 1000 nM; in test [2], 10000 to 30000 nM; in test [3], 10000 to 30000 nM.

As for `NCC(=O)N1CC(Nc2nc(OCC34CCCN3CCC4)nc3c(F)c(-c4ccc(F)c5sc(N)nc45)c(C(F)(F)F)cc23)C1` [Compound 187], the figures for the IC50 in test [1], in test [2] and in test [3] were > 1000 nM, 100 to 1000 nM and 1000 to 10000 nM, respectively.

With `N#Cc1cc2c(N3CC4CCC(C3)N4)nc(OC[C@@]34CCCN3C[C@H](F)C4)nc2c(Cl)c1-c1ccc(F)c2sc(N)c(C#N)c12` [Compound 372], the concentration for half-maximal inhibition (IC50) fell in the range of 100 to 1000 nM in test [1], 1000 to 10000 nM in test [2] and 1000 to 10000 nM in test [3].

For `Nc1nc2c(-c3c(C(F)(F)F)cc4c(N[C@@H]5CCC6(CNC6)C5)nc(OCC56CCCN5CCC6)nc4c3F)ccc(F)c2s1` [Compound 334], the IC50 was > 1000 nM in test [1], 1000 to 10000 nM in test [2] and 1000 to 10000 nM in test [3].

For the molecule `CN(c1nc(OCC23CCCN2CCC3)nc2c(F)c(-c3ccc(F)c4sc(N)nc34)c(C(F)(F)F)cc12)C12CC(N)(C1)C2` [Compound 274], the 50% inhibitory concentration (IC50) in test [1], in test [2] and in test [3] was 100 to 1000 nM throughout.

Take `Nc1nc2c(-c3c(C(F)(F)F)cc4c(N5CCC[C@H]6NCC[C@H]65)nc(OCC56CCCN5CCC6)nc4c3F)ccc(F)c2s1` [Compound 332]: the IC50 in test [1] was 100 to 1000 nM; in test [2], 100 to 1000 nM; in test [3], 1000 to 10000 nM.

On to `N#Cc1c(N)sc2c(F)ccc(-c3c(C(F)(F)F)cc4c(N5CC[C@@H]6CNCC[C@@H]65)nc(OC[C@@]56CCCN5C[C@H](F)C6)nc4c3F)c12` [Compound 376], for which the IC50 in test [1] was ≤ 100 nM; in test [2], 100 to 1000 nM; in test [3], 100 to 1000 nM.

On to `Nc1nc2c(-c3c(C(F)(F)F)cc4c(N[C@H]5C[C@H]6CNC[C@H]6C5)nc(OCC56CCCN5CCC6)nc4c3F)ccc(F)c2s1` [Compound 326], for which the figures for the half-inhibitory concentration (IC50) in test [1], in test [2] and in test [3] were > 1000 nM, 1000 to 10000 nM and 1000 to 10000 nM, respectively.

On to `CN(c1nc(OCC2(CN3CC[C@@H](F)C3)CC2)nc2c(F)c(-c3ccc(F)c4sc(N)nc34)c(C(F)(F)F)cc12)[C@@H]1CCNC1` [Compound 297], for which the IC50 in test [1] was 100 to 1000 nM; in test [2], 100 to 1000 nM; in test [3], 1000 to 10000 nM.

Take `Nc1nc2c(-c3c(C(F)(F)F)cc4c(N5CC6CCC(C5)N6CC5CC5)nc(OC[C@@]56CCCN5C[C@H](F)C6)nc4c3F)ccc(F)c2s1` [Compound 324]: the values for the IC50 in test [1], in test [2] and in test [3] were 100 to 1000 nM, 1000 to 10000 nM and 1000 to 10000 nM, respectively.

As for `Nc1nc2c(-c3c(C(F)(F)F)cc4c(N5CC[C@@H]6CNC[C@@H]65)nc(OC[C@@]56CCCN5C[C@H](F)C6)nc4c3F)ccc(F)c2s1` [Compound 351], the half-maximal inhibitory concentration (IC50) in test [1], in test [2] and in test [3] was 100 to 1000 nM each time.

As to `CN1C[C@H](F)C[C@H]1COc1nc(N2CC3CCC(C2)N3)c2cc(C(F)(F)F)c(-c3ccc(F)c4sc(N)nc34)c(F)c2n1` [Compound 275], the 50% inhibitory concentration (IC50) in test [1] was ≤ 100 nM; in test [2], 1000 to 10000 nM; in test [3], 1000 to 10000 nM.

In the case of `CN(c1nc(OC[C@@]23CCCN2C[C@H](F)C3)nc2c(F)c(-c3ccc(F)c4sc(N)c(C#N)c34)c(F)cc12)[C@@H]1CCNC1` [Compound 377], the concentration for half-maximal inhibition (IC50) in test [1], in test [2] and in test [3] was 100 to 1000 nM each time.

For `CN(c1nc(OC[C@@]23CCCN2C[C@H](F)C3)nc2c(F)c(-c3ccc(F)c4sc(N)c(C#N)c34)c(C(F)(F)F)cc12)[C@]1(C)CCNC1` [Compound 360], the IC50 in test [1] is ≤ 100 nM; in test [2] it was ≤ 100 nM; in test [3] it was 100 to 1000 nM.

With `N#Cc1c(N)sc2c(F)ccc(-c3cc4nc(OC[C@@]56CCCN5C[C@H](F)C6)nc(N5CC6CCC(C5)N6)c4cc3C(F)(F)F)c12` [Compound 323, 4-(4-(3,8-diazabicyclo[3.2.1]octan-3-yl)-2-(((2R,7aS)-2-fluorotetrahydro-1H-pyrrolizin-7a(5H)-yl)methoxy)-6-(trifluoromethyl)quinazolin-7-yl)-2-amino-7-fluorobenzo[b]thiophene-3-carbonitrile], the IC50 is ≤ 100 nM in test [1], ≤ 100 nM in test [2] and 100 to 1000 nM in test [3].

On to `Nc1nc2c(-c3c(C(F)(F)F)cc4c(N5CC6CC(C5)N6)nc(OCC56CCCN5CCC6)nc4c3F)ccc(F)c2s1` [Compound 185], for which the 50% inhibitory concentration (IC50) in test [1], in test [2] and in test [3] was 100 to 1000 nM each time.

`Nc1nc2c(-c3c(C(F)(F)F)cc4c(N5C[C@H]6CC[C@@H](C5)N6)nc(OCC5(CN6CCOCC6)CC5)nc4c3F)ccc(F)c2s1` [Compound 251, 4-(4-((1R,5S)-3,8-diazabicyclo[3.2.1]octan-3-yl)-8-fluoro-2-((1-(morpholinomethyl)cyclopropyl)methoxy)-6-(trifluoromethyl)quinazolin-7-yl)-7-fluorobenzo[d]thiazol-2-amine]: the figures for the IC50 in test [1], in test [2] and in test [3] were ≤ 100 nM, 100 to 1000 nM and 1000 to 10000 nM, respectively.

As for `Nc1nc2c(-c3cc4nc(OC[C@@]56CCCN5C[C@H](F)C6)nc(N5CC6CCC(C5)N6)c4cc3C(F)(F)F)c(F)cc(F)c2s1` [Compound 319], the results for the half-inhibitory concentration (IC50) in test [1], in test [2] and in test [3] were ≤ 100 nM, 100 to 1000 nM and 100 to 1000 nM, respectively.

With `CN(c1nc(OCC23CCCN2CCC3)nc2c(F)c(-c3ccc(F)c4sc(N)nc34)c(C(F)(F)F)cc12)[C@@H]1CCN(C(=O)CN)C1` (atropisomer, axis not shown) [Compound 276], the 50% inhibitory concentration (IC50) in test [1] is > 1000 nM; in test [2], 100 to 1000 nM; in test [3], 1000 to 10000 nM.

Regarding `N#CCc1cc2c(NC3CNC3)nc(OCC34CCCN3CCC4)nc2c(F)c1-c1ccc(F)c2sc(N)nc12` [Compound 126], the IC50 was > 1000 nM in test [1], 1000 to 10000 nM in test [2] and 1000 to 10000 nM in test [3].

Consider `N#Cc1c(N)cccc1-c1c(C(F)(F)F)cc2c(N3CC4CCC(C3)N4)nc(OCC34CCCN3CCC4)nc2c1F` [Compound 342], for which the figures for the IC50 in test [1], in test [2] and in test [3] were > 1000 nM, 10000 to 30000 nM and 10000 to 30000 nM, respectively.

With `CN(c1nc(OC[C@@]23CCCN2C[C@H](F)C3)nc2c(F)c(-c3ccc(F)c4sc(N)c(C#N)c34)c(C(F)(F)F)cc12)[C@H]1CNC[C@H]1F` [Compound 353], the IC50 in test [1] was ≤ 100 nM; in test [2], 100 to 1000 nM; in test [3] it was 100 to 1000 nM.

For the molecule `CN(c1nc(OC[C@@]23CCCN2C[C@H](F)C3)nc2cc(-c3ccc(F)c4sc(N)c(C#N)c34)c(C(F)(F)F)cc12)[C@H]1CNC[C@@H]1F` [Compound 356], the IC50 in test [1] was 100 to 1000 nM; in test [2] it was 1000 to 10000 nM; in test [3], 1000 to 10000 nM.

Take `CO[C@H]1CN2CCC[C@]2(COc2nc(N3CC4CCC(C3)N4)c3cc(C(F)(F)F)c(-c4ccc(F)c5sc(N)nc45)c(F)c3n2)C1` [Compound 285]: the IC50 in test [1] is ≤ 100 nM; in test [2], 100 to 1000 nM; in test [3], 100 to 1000 nM.

As for `CO[C@H]1CN2CCC[C@@]2(COc2nc(N3CC4CCC(C3)N4)c3cc(C(F)(F)F)c(-c4ccc(F)c5sc(N)nc45)c(F)c3n2)C1` [Compound 261], the IC50 is ≤ 100 nM in test [1], 100 to 1000 nM in test [2] and 100 to 1000 nM in test [3].

Regarding `Nc1nc2c(-c3c(C(F)(F)F)cc4c(N5CC6CCCC(C5)N6)nc(OC[C@@]56CCCN5C[C@H](F)C6)nc4c3F)ccc(F)c2s1` [Compound 299], the figures for the IC50 in test [1], in test [2] and in test [3] were ≤ 100 nM, 100 to 1000 nM and 100 to 1000 nM, respectively.

With `CN(c1nc(OC[C@@]23CCCN2C[C@H](F)C3)nc2cc(-c3ccc(F)c4sc(N)nc34)c(C(F)(F)F)cc12)[C@H]1CNC[C@H]1F` [Compound 354], the half-inhibitory concentration (IC50) in test [1], in test [2] and in test [3] was 100 to 1000 nM each time.

As to `Nc1c(F)c(F)c(F)c(-c2c(C(F)(F)F)cc3c(N4CC5CCC(C4)N5)nc(OCC45CCCN4CCC5)nc3c2F)c1Cl` [Compound 346], the IC50 in test [1] is > 1000 nM; in test [2], 10000 to 30000 nM; in test [3] it was 10000 to 30000 nM.

Regarding `CN(c1nc(OC[C@@]23CCCN2C[C@H](F)C3)nc2c(F)c(-c3ccc(F)c4sc(N)c(C#N)c34)c(F)cc12)[C@H]1CCNC1` [Compound 361, 2-amino-4-(6,8-difluoro-2-(((2R,7aS)-2-fluorotetrahydro-1H-pyrrolizin-7a(5H)-yl)methoxy)-4-(methyl((S)-pyrrolidin-3-yl)amino)quinazolin-7-yl)-7-fluorobenzo[b]thiophene-3-carbonitrile], the IC50 in test [1], in test [2] and in test [3] was 100 to 1000 nM throughout.
